A short description of one data set: in vivo. The arrangement: lethality, Dose 10 mg/kg / lethality, Dose 30 mg/kg / lethality, Dose 60 mg/kg: unit not given here. The following applies: mouse, in vivo, ip; substance 60 mg/kg + D-GalN 60 mg/kg, without LPS; mice; observation 48 hours; read-out: lethality, Substance + D-GalN control. Here is the method:
(§1) Substances from the class of dithiazolium salts are described in their protective action by way of example in the following: in vitro in the TNF-α-mediated cytotoxicity test, and in vivo on mice which have been exposed to an endotoxin shock.
(§2) In vivo experiments on inhibition of provoked endotoxin shock were carried out on female inbred mice (F1 B6D2!). Endotoxin/lipopolysaccharide (LPS) from Salmonella abortus equi (0.1 μg/mouse) was administered intraperitoneally or intravenously in association with D-galactosamine hydrochloride (D-GalN; 60 mg/kg of bodyweight) in accordance with reports by Galanos et al. (1979, Proc. Natl. Acad. Sci. USA 76: 5939; V. Lehmann et al. 1987, J. Exp. Med. 165: 657). The substances were administered intraperitoneally one hour before inducement of the endotoxemic shock. The observation period was 48 hours.

Data set [1] relates to endotoxemic shock in D-GalN-sensitized mice. The data set can be described thus: in vivo. Set-up: lethality, Dose 10 mg/kg / lethality, Dose 30 mg/kg / lethality, Dose 60 mg/kg: unit not given here. The following applies: LPS + D-GalN control 100, 48 hours; for lethality, Dose 10 mg/kg: 10 mg/kg i.p. one hour before LPS (0.1 μg/mouse) + D-GalN (60 mg/kg); for lethality, Dose 30 mg/kg: 30 mg/kg i.p. one hour before LPS (0.1 μg/mouse) + D-GalN (60 mg/kg); for lethality, Dose 60 mg/kg: 60 mg/kg i.p. one hour before LPS (0.1 μg/mouse) + D-GalN (60 mg/kg). Here is the method:
as §1, §2

Turning to `CC1C[N+](=c2nc(N(C)C)ss2)CC(C)O1.[I-]` (centres unmarked) [Example 2, 4-(5-dimethylamino-3H-1,2,4-dithiazole-3-ylidene)-2,6-dimethyl-morpholinium iodide], the mortality at 48 h in “in vivo” stood at 0%. Moreover, in data set [1], the “lethality, Dose 10 mg/kg” value was 100; the “lethality, Dose 30 mg/kg” value was found to be 20; the “lethality, Dose 60 mg/kg” value was determined as 0.
In the case of `CN(C)c1nc(=[N+](C)c2ccccc2)ss1.F[B-](F)(F)F` [Example 3, N-(5-dimethylamino-3H-1,2,4-dithiazole-3-ylidene)-N-methylanilinium tetrafluoroborate], in the data set “in vivo”, the mortality at 48 h was found to be 0%. In data set [1], the “lethality, Dose 10 mg/kg” value stood at 80; the “lethality, Dose 30 mg/kg” value is given as 40; the “lethality, Dose 60 mg/kg” value amounted to 0.
On to `CN(C)c1nc(=[N+]2CCOCC2)ss1` [Example 5], for which the mortality at 48 h in “in vivo” is 0%. Further, in data set [1], the “lethality, Dose 10 mg/kg” value is recorded as 40; the “lethality, Dose 30 mg/kg” value was 0; the “lethality, Dose 60 mg/kg” value turned out to be 0.
Turning to `CN1CC[N+](=c2nc(N(C)C)ss2)CC1` [Example 8], in the data set “in vivo”, the mortality at 48 h was 0%. For the same compound, in data set [1], the “lethality, Dose 10 mg/kg” value is 40; the “lethality, Dose 30 mg/kg” value is listed as 0; the “lethality, Dose 60 mg/kg” value is 0.
Turning to `CC(C)[N+](=c1nc(N(C)C)ss1)C(C)C` [Example 10], in the data set “in vivo”, the mortality at 48 h was found to be 0%. Further, in data set [1], the “lethality, Dose 10 mg/kg” value is listed as 20; the “lethality, Dose 30 mg/kg” value is listed as 0; the “lethality, Dose 60 mg/kg” value was found to be 0.
Turning to `CN(C)c1nc(=[N+](C)Cc2ccc(Cl)c(Cl)c2)ss1` [Example 43], in “in vivo”, the mortality at 48 h is 0%. Further, in data set [1], the “lethality, Dose 10 mg/kg” value stood at 20; the “lethality, Dose 30 mg/kg” value is recorded as 20; the “lethality, Dose 60 mg/kg” value stood at 0.
Take `CN(C)c1nc(=[N+](C)Cc2ccc(Cl)cc2)ss1` [Example 46]: in the data set “in vivo”, the mortality at 48 h came out at 0%. Besides, in data set [1], the “lethality, Dose 10 mg/kg” value amounted to 0; the “lethality, Dose 30 mg/kg” value was determined as 0; the “lethality, Dose 60 mg/kg” value is 0.
For `CN(C)c1nc(=[N+](C)Cc2ccc(Cl)cc2Cl)ss1` [Example 48], the mortality at 48 h in “in vivo” was 0%. In data set [1], the “lethality, Dose 10 mg/kg” value was 0; the “lethality, Dose 30 mg/kg” value worked out at 0; the “lethality, Dose 60 mg/kg” value is on record as 0.

Source of the values: patent US5502066A, “1,2,4-dithiazolium salts as chemotherapeutics” (Bayer Aktiengesellschaft, priority 1993, dated 1996).
